Measurements reported in ChEMBL document CHEMBL1201862, “PubChem BioAssay data set” (2004).
Calls of active or inactive are those of the source.

How the values were obtained:
[1] = molecular target: T1, Short transient receptor potential channel 4 (Mus musculus, UniProt Q9QUQ5); assay: mouse TRPC4 channel inhibitors, dose response, cell-based, HEK293 TRPC4/mu-opioid, Fluo-4 calcium (AID 434942); format: functional;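 note: potency of inhibitors blocking the TRPC4 calcium response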
T1 sequence (Q9QUQ5 whole entry): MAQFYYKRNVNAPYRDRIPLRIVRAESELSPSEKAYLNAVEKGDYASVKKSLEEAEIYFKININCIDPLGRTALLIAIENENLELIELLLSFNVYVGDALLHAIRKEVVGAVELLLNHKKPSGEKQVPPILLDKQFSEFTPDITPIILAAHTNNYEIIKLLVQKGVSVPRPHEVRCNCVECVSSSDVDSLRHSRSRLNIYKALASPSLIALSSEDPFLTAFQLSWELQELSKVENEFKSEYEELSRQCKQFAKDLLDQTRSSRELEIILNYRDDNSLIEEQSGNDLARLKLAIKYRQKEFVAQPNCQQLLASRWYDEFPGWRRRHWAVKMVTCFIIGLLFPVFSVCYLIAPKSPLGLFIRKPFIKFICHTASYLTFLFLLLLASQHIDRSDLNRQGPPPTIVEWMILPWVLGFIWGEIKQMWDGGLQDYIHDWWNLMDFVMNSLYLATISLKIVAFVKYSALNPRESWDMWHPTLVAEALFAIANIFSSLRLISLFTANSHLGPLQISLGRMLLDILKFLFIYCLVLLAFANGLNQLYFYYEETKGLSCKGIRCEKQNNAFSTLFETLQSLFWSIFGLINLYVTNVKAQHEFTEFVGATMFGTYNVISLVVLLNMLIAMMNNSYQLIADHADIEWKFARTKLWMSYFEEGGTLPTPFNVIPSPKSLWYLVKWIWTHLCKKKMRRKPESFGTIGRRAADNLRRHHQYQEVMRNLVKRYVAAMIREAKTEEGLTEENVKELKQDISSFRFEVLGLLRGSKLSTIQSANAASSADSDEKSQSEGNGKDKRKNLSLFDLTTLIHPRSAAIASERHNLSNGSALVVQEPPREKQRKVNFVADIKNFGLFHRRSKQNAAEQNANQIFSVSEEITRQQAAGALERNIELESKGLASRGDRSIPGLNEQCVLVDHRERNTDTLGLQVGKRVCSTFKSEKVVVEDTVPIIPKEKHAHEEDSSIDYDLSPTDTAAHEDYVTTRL

[2] = molecular target: T2, Microphthalmia-associated transcription factor (Homo sapiens, UniProt O75030); assay: TRPM1 promoter luciferase signal decrease, dose response, MITF inhibitor project, cell-based, SK-MEL-5, cherry-picked, set 3 (AID 493073); format: functional
T2 sequence (O75030 whole entry): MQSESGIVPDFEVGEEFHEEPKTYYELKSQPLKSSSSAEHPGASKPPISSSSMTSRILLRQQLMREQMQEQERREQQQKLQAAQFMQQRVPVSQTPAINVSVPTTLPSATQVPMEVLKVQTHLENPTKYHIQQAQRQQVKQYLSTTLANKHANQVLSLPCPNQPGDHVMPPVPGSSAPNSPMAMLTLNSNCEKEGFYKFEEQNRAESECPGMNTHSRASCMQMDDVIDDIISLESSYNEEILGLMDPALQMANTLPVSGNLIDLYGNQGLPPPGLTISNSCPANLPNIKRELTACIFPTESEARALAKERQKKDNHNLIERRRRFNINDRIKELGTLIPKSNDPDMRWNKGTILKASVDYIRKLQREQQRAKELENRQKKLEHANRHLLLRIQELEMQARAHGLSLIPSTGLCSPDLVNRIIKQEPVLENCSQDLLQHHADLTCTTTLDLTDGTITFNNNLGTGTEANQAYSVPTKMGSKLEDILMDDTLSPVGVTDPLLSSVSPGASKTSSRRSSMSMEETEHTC

[3] = Luminescence Cell-Based Dose Response HTS to Identify Inhibitors of 5'UTR Stem-Loop Driven Prion Protein mRNA Translation in H4 Neuroglioblastoma Cells. [Related pubchem assays: 1827 (Project Summary), 1813 (Primary HTS)]; format: functional
[4] = inhibitors of firefly luciferase expression or activity, dose response, H4 neuroglioma cells, luminescence (AID 1990); format: functional, cell-based
[5] = inhibitors of SNCA 5'UTR-driven reporter translation, confirmation, H4 neuroglioma cells, luminescence (AID 1988); format: functional, cell-based
[6] = cytotoxicity in HEK-293T cells, dose response, cytotoxicity control for BCR NF-kB inhibitor project, luminescence, B-cell screen hits (AID 489021); format: functional, cell-based;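 note: HEK-293T cells carrying an NF-kB luciferase reporter; cells exposed to compound for about 14 hours before viability readout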
[7] = HEp-2 cell cytotoxicity, dose response, cytotoxicity control for RSV inhibitor project, HTS (AID 2410); format: functional; conditions: human respiratory syncytial virus
[8] = molecular target: T3, High affinity choline transporter 1 (Homo sapiens, UniProt Q9GZV3); assay: CHT inhibitors, dose response, cell-based, 5-point CRC, membrane potential dye (AID 504840); format: functional
T3 sequence (Q9GZV3 whole entry): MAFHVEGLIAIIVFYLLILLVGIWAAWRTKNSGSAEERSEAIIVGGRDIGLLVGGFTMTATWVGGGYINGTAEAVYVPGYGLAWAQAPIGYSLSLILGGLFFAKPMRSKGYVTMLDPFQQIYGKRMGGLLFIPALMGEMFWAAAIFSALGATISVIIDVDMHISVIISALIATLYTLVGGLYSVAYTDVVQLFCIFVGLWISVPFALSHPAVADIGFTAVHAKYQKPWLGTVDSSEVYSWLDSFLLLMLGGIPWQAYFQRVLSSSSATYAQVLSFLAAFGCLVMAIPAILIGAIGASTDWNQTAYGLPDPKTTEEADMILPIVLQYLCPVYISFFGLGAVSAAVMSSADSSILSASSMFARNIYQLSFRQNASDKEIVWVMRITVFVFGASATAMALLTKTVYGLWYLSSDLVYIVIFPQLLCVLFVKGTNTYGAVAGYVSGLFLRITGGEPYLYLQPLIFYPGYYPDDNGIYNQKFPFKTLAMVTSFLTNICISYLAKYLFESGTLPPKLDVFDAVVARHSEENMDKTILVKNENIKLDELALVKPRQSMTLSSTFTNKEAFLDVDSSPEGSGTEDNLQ

[9] = molecular target: T4, Corticotropin-releasing factor receptor 2/Corticotropin-releasing factor-binding protein (Homo sapiens, UniProt P24387+Q13324); assay: activators of CRF receptor 2 with binding protein – uHTS hits, confirmation (AID 602473); format: functional; conditions: read-out: EC50_Mean
T4 sequence (Q13324 whole entry): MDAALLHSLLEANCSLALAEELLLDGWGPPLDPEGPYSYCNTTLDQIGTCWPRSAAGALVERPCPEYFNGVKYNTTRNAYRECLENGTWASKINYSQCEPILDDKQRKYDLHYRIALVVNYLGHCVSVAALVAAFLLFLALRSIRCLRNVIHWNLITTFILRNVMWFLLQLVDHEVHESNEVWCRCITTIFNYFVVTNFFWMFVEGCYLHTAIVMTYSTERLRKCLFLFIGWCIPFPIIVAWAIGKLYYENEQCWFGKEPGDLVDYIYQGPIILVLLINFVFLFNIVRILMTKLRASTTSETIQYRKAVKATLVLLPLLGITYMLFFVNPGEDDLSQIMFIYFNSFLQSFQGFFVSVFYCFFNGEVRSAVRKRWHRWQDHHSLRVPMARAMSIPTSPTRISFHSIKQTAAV
T4 sequence (P24387 whole entry): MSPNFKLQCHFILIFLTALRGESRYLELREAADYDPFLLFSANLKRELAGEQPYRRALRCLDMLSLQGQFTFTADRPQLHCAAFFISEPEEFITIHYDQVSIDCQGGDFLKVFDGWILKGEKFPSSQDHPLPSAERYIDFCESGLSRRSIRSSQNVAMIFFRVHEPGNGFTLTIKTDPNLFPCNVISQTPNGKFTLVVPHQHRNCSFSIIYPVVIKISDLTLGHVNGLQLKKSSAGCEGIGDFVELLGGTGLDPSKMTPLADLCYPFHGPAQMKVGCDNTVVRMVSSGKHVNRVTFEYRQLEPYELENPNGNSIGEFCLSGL

Leucine aminopeptidase = molecular target: T5, Leucine aminopeptidase (Plasmodium falciparum 3D7, UniProt Q8IL11); assay: P. falciparum M17LAP inhibitors, primary screen, biochemical, fluorogenic H-Leu-NHMec substrate, 1536-well (AID 1619); format: functional
T5 sequence (Q8IL11 whole entry): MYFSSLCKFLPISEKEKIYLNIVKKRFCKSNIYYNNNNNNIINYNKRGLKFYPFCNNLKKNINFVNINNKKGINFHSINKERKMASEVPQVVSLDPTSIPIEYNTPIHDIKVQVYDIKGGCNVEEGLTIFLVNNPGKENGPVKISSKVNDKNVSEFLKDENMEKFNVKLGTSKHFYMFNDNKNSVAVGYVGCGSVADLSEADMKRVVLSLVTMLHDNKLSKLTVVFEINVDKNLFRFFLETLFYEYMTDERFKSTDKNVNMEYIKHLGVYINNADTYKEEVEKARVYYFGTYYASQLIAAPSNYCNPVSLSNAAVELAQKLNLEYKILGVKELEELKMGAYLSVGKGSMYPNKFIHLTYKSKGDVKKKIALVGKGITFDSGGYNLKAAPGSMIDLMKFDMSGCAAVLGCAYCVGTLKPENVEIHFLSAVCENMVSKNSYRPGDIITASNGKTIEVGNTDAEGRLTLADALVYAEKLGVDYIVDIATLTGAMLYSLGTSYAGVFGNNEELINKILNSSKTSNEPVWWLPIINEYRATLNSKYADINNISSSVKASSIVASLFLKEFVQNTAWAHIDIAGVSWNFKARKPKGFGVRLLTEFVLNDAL

[10] = molecular target: T4, Corticotropin-releasing factor receptor 2/Corticotropin-releasing factor-binding protein; assay: Dose Response confirmation of uHTS hits for small molecule antagonists of the CRF-binding protein and CRF-R2 receptor complex.; format: functional; conditions: read-out: IC50_Mean
Streptokinase A = molecular target: T6, Streptokinase A (Streptococcus pyogenes serotype M1, UniProt P10520); assay: S. pyogenes streptokinase expression inhibitors, potency, dose response, plasminogen activation absorbance, OD405 (AID 1914); format: functional, Streptococcus pyogenes M1 GAS;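 note: secreted streptokinase activity via plasminogen activation per viability signal from cell pellet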
T6 sequence (P10520 whole entry): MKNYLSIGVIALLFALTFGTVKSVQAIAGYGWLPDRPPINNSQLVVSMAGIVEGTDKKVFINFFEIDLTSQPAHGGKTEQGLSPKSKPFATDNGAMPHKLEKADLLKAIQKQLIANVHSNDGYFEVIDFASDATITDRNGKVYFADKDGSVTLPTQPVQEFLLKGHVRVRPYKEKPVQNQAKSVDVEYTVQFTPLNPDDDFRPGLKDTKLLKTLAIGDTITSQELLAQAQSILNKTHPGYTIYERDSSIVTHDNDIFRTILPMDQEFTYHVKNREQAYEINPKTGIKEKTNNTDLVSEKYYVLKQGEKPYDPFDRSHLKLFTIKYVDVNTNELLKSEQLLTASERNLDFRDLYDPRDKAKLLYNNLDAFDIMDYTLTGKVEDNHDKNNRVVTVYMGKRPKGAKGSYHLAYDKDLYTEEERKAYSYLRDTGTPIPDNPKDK

[11] = molecular target: T7, Polyadenylate-binding protein 1 (Homo sapiens, UniProt P11940); assay: PABP1 MLLE–PAM2 binding inhibitor potency, dose response, biochemical, fluorescence polarization, FITC-PAM2 peptide (AID 602259); format: functional; conditions: read-out: IC50_Mean
[12] = microbe, parasite or virus in culture; format: functional; conditions: Mycobacterium tuberculosis
[13] = molecular target: T7, Polyadenylate-binding protein 1; assay: PABP1 MLLE–PAM2 interaction inhibitors, dose response, miRNA deadenylation inhibitor project, biochemical, fluorescence polarization, Cy5-PAM2 peptide, secondary (AID 602260); format: functional; conditions: read-out: IC50_Mean

T7 sequence (P11940 whole entry): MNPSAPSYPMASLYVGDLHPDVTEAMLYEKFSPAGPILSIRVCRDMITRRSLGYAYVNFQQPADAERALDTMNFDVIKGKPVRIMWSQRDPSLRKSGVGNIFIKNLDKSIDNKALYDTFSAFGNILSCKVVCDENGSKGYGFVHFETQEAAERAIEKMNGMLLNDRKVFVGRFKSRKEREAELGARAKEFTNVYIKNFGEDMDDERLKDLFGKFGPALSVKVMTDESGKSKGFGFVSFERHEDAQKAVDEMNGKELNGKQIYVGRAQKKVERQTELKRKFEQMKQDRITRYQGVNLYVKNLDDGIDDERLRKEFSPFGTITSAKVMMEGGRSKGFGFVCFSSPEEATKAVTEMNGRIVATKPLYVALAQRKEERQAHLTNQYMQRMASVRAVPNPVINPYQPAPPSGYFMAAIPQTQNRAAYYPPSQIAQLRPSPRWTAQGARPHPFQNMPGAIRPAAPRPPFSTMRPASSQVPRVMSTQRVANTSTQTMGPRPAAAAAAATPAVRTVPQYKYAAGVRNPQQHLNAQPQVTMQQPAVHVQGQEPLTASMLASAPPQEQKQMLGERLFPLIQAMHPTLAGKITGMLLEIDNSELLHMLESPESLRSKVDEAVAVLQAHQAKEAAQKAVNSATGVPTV

CN(C)C(CNC(=O)c1oc2ccccc2c1CSc1nc[nH]n1)c1ccco1 (configuration not stated)
EC50 [1]: 8.41 µM (active)

O=C(CCCN1C(=O)S/C(=C\c2ccccc2)C1=O)NNC(=O)c1ccccc1O
AC50 [2]: 33.9 µM (active)
EC50 [3]: 15.2 µM (active)
EC50 [4]: < 0.1 µM (active)
EC50 [5]: 0.157 µM (active)
IC50 [6]: > 80 µM (inactive)

Oc1[nH]c2ccccc2c1N=Nc1nc(Nc2ccccc2)nc(N2CCOCC2)n1
IC50 [6]: 50.1 µM (inactive)

O=C(c1ccc(Br)o1)N1CCN(c2ccc3nnc(-c4ccccc4)n3n2)CC1
IC50 (cells): 48.6 µM (active)

O=C(/C=C/c1ccccc1)Nc1sc2c(c1C(=O)O)CCC2
CC50 [7]: 19.7 µM (active)
IC50 (cells): 26.1 µM (active)

O=C(O)c1cccc(COc2cccc3ccccc23)c1
CC50 [7]: 31.1 µM (active)
IC50 (cells): 28.2 µM (active)

NS(=O)(=O)c1ccc(CCNCc2ccccc2OCc2ccc(Cl)cc2)cc1
EC50 [1]: 6.68 µM (active)
IC50 [8]: 11.2 µM (active)

Cc1nc2cc(-c3ccc(Cl)cc3)nn2c(C)c1CCC(=O)NCc1ccco1
IC50 [6]: > 80 µM (inactive)

Cc1ccc(NC(=O)CNc2ccccc2CN(C)C2CCCCC2)cc1
EC50 [1]: 2.99 µM (active)

Cc1cc(=O)[nH]c(SCC(=O)Nc2ccc(Br)cc2)c1C#N
EC50 [9]: 8.83 µM (active)
IC50 (Leucine aminopeptidase): 1.48 µM (active)
IC50 [10]: 2.16 µM (active)
EC50 (Streptokinase A): > 150 µM (not active)

CCCCCC(=O)NNC(=S)NC(=O)c1ccc([N+](=O)[O-])cc1
IC50 [11]: > 66 µM (inactive)
IC50 (Leucine aminopeptidase): 49.2 µM (active)
CC50 [12]: > 40 µM (active)
IC50 [13]: > 66 µM (inactive)

C=CCSc1nc2c(c(=O)[nH]c(=O)n2C)n1C/C=C(/C)Cl
CC50 [7]: 37.2 µM (active)
EC50 [1]: 2.37 µM (active)

O=C(c1cccc(N2C(=O)C3C4C=CC(C4)C3C2=O)c1)N1CCN(c2ccccc2Cl)CC1 (configuration not stated)
CC50 [7]: > 50 µM (active)
IC50 (cells): 32.6 µM (active)

Cc1ccccc1NC(=O)C1CCCN1S(=O)(=O)c1cccc2cccnc12 (configuration not stated)
CC50 [7]: > 50 µM (active)
IC50 (cells): 19.5 µM (active)

CCC(CO)Oc1cc(NCc2ccccc2O)c2ncn(C(C)C)c2c1 (configuration not stated)
IC50 [6]: > 80 µM (inactive)

CC(C)OCCCNC(=O)c1c(N)n(/N=C/c2ccccn2)c2nc3ccccc3nc12
IC50 [6]: > 80 µM (inactive)
